Measurements as given in patent US20240000821A1, “CHEMICAL INHIBITORS AGAINST KINASES TO BLOCK TELOMERE ELONGATION IN CANCER” (THE JOHNS HOPKINS UNIVERSITY, priority 2016, published 2024).

Key:
SL13 cells = assay: Inhibition of SVA mediated telomere elongation (telomere Southern blot); assay type: cell-based, mouse; conditions: for concentration dependence of the block of telomere elongation: several concentrations, FIG. 6, FIG. 7B
Method: Inhibition of SVA mediated telomere elongation. First, 2×10^5 SL13 cells were plated onto a 6-well dish in DMEM (Gibco) with 10% FBS (Sigma) and 1% Penicillin-Streptomycin-Glutamine (Gibco). SL13 cells are a mouse fibroblast line that was derived as described (Lee et al., 299(Pt 1) BIOCHEM. J. 123-28 (2015)). After 24 hours, the drug or vehicle was added at the indicated concentration for the duration of the experiment. 24 hours later, SVA virus was added at an MOI of 0.5. 2 population doublings were estimated during the initial 48 hours; therefore 400,000 transduction units of SVA were added to 800,000 cells. Media was changed at 24 hours post transduction, and cell pellets were collected at 2 and 6 days post transduction.
Telomere Southern Blot. Telomere length was measured by telomere restriction fragment Southern blot. Genomic DNA was extracted using Puregene Core Kit A (Qiagen). 1-3 μg of gDNA was digested with MseI (NEB) and loaded onto a 0.7% TAE Agarose gel. The gel was run at 37 V for 16 hours, then denatured for 30 minutes in 0.5 M NaOH and 1.5 M NaCl, then neutralized for 30 minutes in 1.5 M NaCl and 0.5 M Tris-HCl pH 7.4. The DNA was transferred from the gel to a nylon membrane (Amersham Hybond N+) by the weighted method overnight. Next, DNA was crosslinked to the membrane with a UV Stratalinker (Stratagene). The membrane was then pre-incubated for 2 hours at 65° C. with Church's Buffer. Telomere probe and 2-log ladder (Life Technologies) was then end-labeled with Klenow fragment polymerase (NEB) 33 μM of dATP, dTTP, dGTP and 50 μCi of α-32P dCTP (3000 Ci/mmol). Unincorporated nucleotides were removed by running on a G50 column (GE Healthcare). Labeled probe was counted, denatured at 100° C., and 10^6 counts/mL telomere probe and 2×10^4 counts/mL of 2-log ladder were added. The membrane was probed overnight at 65° C. The next day, the membrane was washed twice with 2×SSC 0.1% SDS, then twice with 0.5×SSC 0.1 SDS. The membrane was exposed on a phosphorimager (GE Healthcare) and imaged on a STORM scanner (GE Healthcare).

mouse fibroblasts = assay: toxicity to mouse fibroblasts; assay type: cell-based; conditions: data not shown
CK1 = conditions: Selleckchem, read-out: in vitro IC50; cited from earlier work
[1] = 0.5 μM, days 2 and 6 post SVA transduction, FIG. 7A
[2] = 10 μM, days 2 and 6 post SVA transduction

Nc1ncnc2c1c(I)cn2[C@@H]1O[C@H](CO)[C@@H](O)[C@H]1O [5-Iodotubercidin]
effect on telomere elongation by SVA (SL13 cells; [1]): did not affect telomere elongation

NC(=O)c1ccc(-c2nc(-c3ccc4c(c3)OCCO4)c(-c3ccccn3)[nH]2)cc1 [Compound D4476]
effect on telomere elongation by SVA (SL13 cells; 0.37 μM, compared to DMSO control, FIG. 7B): able to block some telomere elongation
effect on telomere elongation by SVA (SL13 cells; [2]): blocked telomere elongation
effect on telomere elongation by SVA (SL13 cells; lower concentrations (3.33 μM, 1.11 μM or 0.37 μM), FIG. 7B): less blockage of telomere elongation

Nc1[nH]nc2nnc(-c3c(-c4ccccc4)nn4ccccc34)cc12 [FR-180204]
effect on telomere elongation by SVA (SL13 cells; [2]): minimal effect on telomere elongation

Cn1nccc1Nc1nccc(-c2ccn([C@H](CO)c3ccc(Cl)c(F)c3)c(=O)c2)n1 [GDC-0994]
effect on telomere elongation by SVA (SL13 cells; [2]): blocked telomere elongation

COc1cc2c(cc1-c1c(C)noc1C)ncc1[nH]c(=O)n([C@H](C)c3ccccn3)c12 [I-BET151]
effect on telomere elongation by SVA (SL13 cells; 1 μM, days 2 and 6 post SVA transduction, FIG. 5C): blocked SVA induced telomere elongation

COc1cc(OC)c(C=C2C(O)=Nc3ccccc32)c(OC)c1 [IC261]
cell death (mouse fibroblasts; 2.5 μM): significant cell death
effect on telomere elongation by SVA (SL13 cells; [1]): did not affect telomere elongation
IC50 (CK1): 16 µM

Cc1sc2c(c1C)C(c1ccc(Cl)cc1)=N[C@@H](CC(=O)OC(C)(C)C)c1nnc(C)n1-2 [JQ1]
effect on telomere elongation by SVA (SL13 cells; 11 nM, days 2 and 6 post SVA transduction, FIG. 6): virtually no effect on telomere elongation
effect on telomere elongation by SVA (SL13 cells; 33 nM, days 2 and 6 post SVA transduction, FIG. 6): intermediate telomere length
effect on telomere elongation by SVA (SL13 cells; 0.1 μM, telomere length day 6 vs day 2 post SVA transduction, FIG. 5A): blocked telomere elongation
effect on telomere elongation by SVA (SL13 cells; 100 nM, days 2 and 6 post SVA transduction, FIG. 6): blocked nearly all SVA mediated elongation
concentration dependence of the block of telomere elongation (SL13 cells): titrates with its concentration

O=c1cc(-c2cccc3c2Sc2ccccc2S3)oc(N2CCOCC2)c1 [KU-55933]
effect on telomere elongation by SVA (SL13 cells; [2]): blockage

Cc1cc(/N=N/c2ccc(S(=O)(=O)Nc3ccccn3)cc2)c(N)cc1O [MS436]
effect on telomere elongation by SVA (SL13 cells; 5 μM, days 2 and 6 post SVA transduction): blocked SVA induced telomere elongation

Cc1sc2c(c1C)C(c1ccc(Cl)cc1)=N[C@@H](CC(=O)Nc1ccc(O)cc1)c1nnc(C)n1-2 [OTX015]
effect on telomere elongation by SVA (SL13 cells; 0.4 μM, days 2 and 6 post SVA transduction, FIG. 5B): blocked SVA induced telomere elongation
